Assay results reported in patent publication US20150164874A1, “PIRFENIDONE AND ANTI-FIBROTIC THERAPY IN SELECTED PATIENTS” (INTERMUNE, INC., priority 2011, published 2015).

Assays:
[1] = tested on: IPF patients with mild to moderate impairment in lung function; assay: Phase 3 trials Study 1 and Study 2 of pirfenidone vs placebo in IPF patients, retrospective re-analysis (ITT vs novel selection criteria); type: in vivo, human; details: for 6MWT change from baseline, Relative Δ / % DLco change from baseline, Relative Δ / % FVC ≧10% decline, Relative Δ / Progression-free survival, time to event HR / SpO2 During 6MWT change from baseline, Relative Δ / Survival, time to event HR / UCSD SOBQ (dyspnea) change from baseline, Relative Δ / Worsening IPF, time to event HR: Study 1 and Study 2 pooled, pirfenidone vs placebo; for Interaction with Treatment: Group with Greater Pirfenidone Effect: multivariate model of FVC decline at 72 weeks
Text: Two multinational, randomized, double-blind, placebo-controlled Phase 3 trials, referred to herein as Study 1 and Study 2, were designed and performed to evaluate the safety and efficacy of pirfenidone in IPF patients with mild to moderate impairment in lung function. Both trials enrolled patients in North America, Europe and Australia with roughly 75% of the total 779 patients enrolled in North America.
Study 1 enrolled a total of 344 patients. Patients were randomized 1:1 to receive a total daily dose of 2403 mg pirfenidone, or placebo. Study 2 enrolled a total of 435 patients, and patients were randomized 2:2:1 to receive a total daily dose of 2403 mg pirfenidone, or placebo, or a total daily dose of 1197 mg pirfenidone, respectively. The total daily dose of pirfenidone was administered in three divided doses, three times per day.
If the surgical lung biopsy or HRCT scans were ambiguous, the slides or HRCT images were evaluated by an adjudicator for a second opinion.
Exclusion criteria included: FEV1/FVC<0.7 after bronchodilator administration, bronchodilator response, RV>120%, history of significant environmental exposure known to cause pulmonary fibrosis, and diagnosis of connective tissue disease or other known explanation of interstitial lung disease (ILD).
Enrollment of both trials was completed in less than 13 months following randomization of the first patient into the program in late April 2006. Ninety-seven percent (97%) of all patients in the two studies who were living and had not received a lung transplant, completed their Week 72 study visit.
The primary endpoint of both trials was change in percent predicted Forced Vital Capacity (FVC) after 72 weeks of treatment evaluated with a nonparametric rank ANCOVA analysis. The pre-specified secondary endpoints monitored during the studies included: (a) Time to worsening of IPF, defined as time to acute IPF exacerbation, IPF-related death, lung transplant or respiratory hospitalization, whichever comes first; (b) Progression-free survival defined as time to the first occurrence of either of the following (as compared to the patient's baseline): (1) 10% absolute decline in percent predicted FVC, or (2) 15% absolute decline in percent predicted Hb-corrected DL(CO), or (3) death (in the case of FVC or DL(CO), the decline must be confirmed at two consecutive visits at least 6 weeks apart); (c) Categorical assessment of absolute change from Baseline to Week 72 in percent predicted FVC; (d) Change from Baseline to Week 72 in dyspnea measured by the University of California at San Diego Shortness-of-Breath Questionnaire (UCSD SOBQ); (e) Change from Baseline to Week 72 in the percent predicted Hb-corrected DL(CO); (f) Change from Baseline to Week 72 in the worst oxygen saturation by pulse oximetry (SpO2) measurement observed during the Six-Minute Walk Test; (g) Change from Baseline to Week 72 in distance walked in the Six-Minute Walk Test (6MWT).
After the studies were completed, a retrospective multivariate model of data identified predictors of greater FVC decline at 72 weeks and variables that have a statistical interaction with pirfenidone treatment (i.e. the magnitude of the pirfenidone treatment effect is different at different levels of these variables).
Data from Study 1 and Study 2 were re-analyzed, selecting patients according to the following novel criteria instead of the original Intention To Treat (IIT) criteria:
(c) Time since IPF diagnosis >0.5 years and <48 months
Mean change in FVC in pirfenidone-treated vs. placebo-treated groups from Study 1 and Study 2, for the original patient population selected using the ITT criteria, is shown in FIG. 2A. When the patient population is instead selected using the novel criteria above, the mean change in FVC in pirfenidone-treated vs. placebo-treated groups for the patient is shown in FIG. 2B. Patients in both pirfenidone-treated and placebo-treated groups experienced a decline in mean % FVC from baseline. […]

[2] = tested on: IPF patients with mild to moderate impairment in lung function; assay: Phase 3 study of Actimmune in 826 IPF patients, retrospective analysis of FVC progression; type: in vivo, human; details: Phase 3 study 2003-2007
Text: FIGS. 1A-1D depicts a analysis of FVC progression from a clinical trial involving a different drug, interferon gamma-lb, which is inert with respect to effect on efficacy outcomes, in 826 patients with IPF, when the patients are segregated according to % FVC (FIG. 1A), % DLco (FIG. 1B), time since IPF diagnosis (FIG. 1C) and FEV1/FVC ratio (FIG. 1D).
In a prior trial involving 826 patients, data regarding progression of FVC was collected as part of a randomized, double-blind, placebo-controlled Phase 3 study conducted from 2003-2007 that was designed to evaluate the safety and efficacy of Actimmune(R) in IPF patients with mild to moderate impairment in lung function.

[3] = Study 1 and Study 2, novel criteria, week 72
[4] = Study 1 and Study 2, original ITT criteria, week 48
[5] = Study 1 and Study 2, original ITT criteria, week 72

For `Cc1ccc(=O)n(-c2ccccc2)c1` [pirfenidone, 5-methyl-1-phenyl-2-(1H)-pyridone], the “6MWT change from baseline, Relative Δ” value ([1]; Novel criteria, week 48) was 64.2%, the “% DLco change from baseline, Relative Δ” value ([1]; Novel criteria, week 48) was 36.9% and the “% FVC ≧10% decline, Relative Δ” value ([1]; Novel criteria, week 48) was 60.4%. For the same molecule, the “Progression-free survival, time to event HR” value ([1]; Novel criteria, week 48) was 0.31, the “SpO2 During 6MWT change from baseline, Relative Δ” value ([1]; Novel criteria, week 48) was 62.3% and the “Survival, time to event HR” value ([1]; Novel criteria, week 48) was 0.16. For the same molecule, the “UCSD SOBQ (dyspnea) change from baseline, Relative Δ” value ([1]; Novel criteria, week 48) was −46.5%, the “Worsening IPF, time to event HR” value ([1]; Novel criteria, week 48) was 0.75 and the “6MWT change from baseline, Relative Δ” value ([1]; Pooled ITT, week 48) was 41%. For the same molecule, the “% DLco change from baseline, Relative Δ” value ([1]; Pooled ITT, week 48) was 16%, the “% FVC ≧10% decline, Relative Δ” value ([1]; Pooled ITT, week 48) was 39% and the “Progression-free survival, time to event HR” value ([1]; Pooled ITT, week 48) was 0.53. For the same molecule, the “SpO2 During 6MWT change from baseline, Relative Δ” value ([1]; Pooled ITT, week 48) was 21%, the “Survival, time to event HR” value ([1]; Pooled ITT, week 48) was 0.42 and the “UCSD SOBQ (dyspnea) change from baseline, Relative Δ” value ([1]; Pooled ITT, week 48) was −29%. For the same molecule, the “Worsening IPF, time to event HR” value ([1]; Pooled ITT, week 48) was 0.80, the “absolute difference in mean change from baseline % FVC between pirfenidone-treated and placebo-treated groups” value ([1]; Study 1 and Study 2, novel criteria (% FVC 50%-90%, FEV1/FVC >0.80, time since diagnosis >0.5 years and <48 months), week 48) was 6.1% and the “relative difference in mean change from baseline % FVC between pirfenidone-treated and placebo-treated groups” value ([1]; Study 1 and Study 2, novel criteria, week 48) was 63.3%. For the same molecule, the “absolute difference in mean change from baseline % FVC between pirfenidone-treated and placebo-treated groups” value [1, 3] was 7.9%, the “relative difference in mean change from baseline % FVC between pirfenidone-treated and placebo-treated groups” value [1, 3] was 57.0% and the “absolute difference in mean change from baseline % FVC between pirfenidone-treated and placebo-treated groups” value [1, 4] was 3.3%. The “relative difference in mean change from baseline % FVC between pirfenidone-treated and placebo-treated groups” value [1, 4] was 41.6%, the “absolute difference in mean change from baseline % FVC between pirfenidone-treated and placebo-treated groups” value [1, 5] was 2.5% and the “relative difference in mean change from baseline % FVC between pirfenidone-treated and placebo-treated groups” value [1, 5] was 22.8%. For the same molecule, the “Interaction with Treatment: Group with Greater Pirfenidone Effect” value ([1]; variable % FVC (90%), P-value 0.096) was “FVC <90%” and the “Interaction with Treatment: Group with Greater Pirfenidone Effect” value ([1]; variable Time since Diagnosis of IPF (0.5 yrs), P-value 0.043) was “Time >0.5 years”.

B1: Actimmune: a different drug, interferon gamma-lb, inert with respect to effect on efficacy outcomes in IPF (protein, UniProt P01579 24-161, looked up)
Interferon gamma: QDPYVKEAENLKKYFNAGHSDVADNGTLFLGILKNWKEESDRKIMQSQIVSFYFKLFKNFKDDQSIQKSVETIKEDMNVKFFNSNKKKRDDFEKLTNYSVTDLNVQRKAIHELIQVMAELSPAAKTGKRKRSQMLFRG
With B1 the “effect on FVC progression / efficacy outcomes” value [2] was “does not have an effect on these outcomes”.
